One data set has as its target VEGFR-2 (Homo sapiens, UniProt P35968). The data set can be described thus: In vitro VEGFR-2 kinase inhibitory assay. Format: biochemical. How it is done:
[…]. The in vitro assays were carried out as previously described.

Data set [1] relates to HePG-2, HCT-116 and MCF-7 cell lines. Put plainly: MTT antiproliferative assay, range over the three cancer cell lines. As to conditions: Homo sapiens. The format is cell-based. How it is done:
Sorafenib was used as a positive control medication.
As previously documented, the in vitro anticancer efficacy of the produced hybrids was evaluated using an MTT test. The used cell lines was bought from Vacsera (Giza, Egypt).
(Formazan colour is commonly taken as a measure of viable cells.)

The next data set has as its target BRAF (V600E) (Homo sapiens, UniProt P15056, V600E). The data set can be described thus: In vitro BRAF (V600E) kinase inhibitory assay. The format is biochemical.
The subject of the next data set is WI-38 cells. The data set can be described thus: Cytotoxicity against normal human cells, WI-38. Format: cell-based. As to conditions: normal lung cell line WI-38.
A further data set concerns MCF-7. Put plainly: MTT antiproliferative assay, MCF-7. Format: cell-based. As to conditions: Homo sapiens, MCF7; breast cancer MCF-7, MTT.
The subject of the next data set is HCT-116. The data set can be described thus: MTT antiproliferative assay, HCT-116. The format is cell-based. As to conditions: Homo sapiens, HCT-116, read-out: IC50 (µM) HCT-116.
For another data set, the system named is HePG-2. The data set can be described thus: MTT antiproliferative assay, HePG-2. As to conditions: Homo sapiens, HepG2; hepatocellular carcinoma HePG-2, MTT. The format is cell-based.
The test system of data set [2] is MCF-7 cells. Put plainly: Annexin V-FITC/PI apoptosis detection. The format is cell-based, human. As to conditions: 24 h, untreated control 0.89%. The source says: The level of apoptosis was quantified utilizing the MCF-7 cell lines and Annexin V-FITC/PI apoptosis detection kit, as documented in the literature.
In data set [3] the test system is MCF-7 cells. The data set can be described thus: Cell cycle analysis by DNA flow cytometry (PI). Format: cell-based, human. Here is the method:
To ascertain the precise cell cycle phase at which our highly promising chemical 4f causes the MCF7 breast cancer cells to cease their progression, we conducted cell cycle analysis and apoptotic experiments utilizing DNA flow cytometry.
As previously documented, the cell cycle study was conducted on the MCF-7 cell lines, stained with PI and examined using a Calibur flow cytometer.
Background: In flow cytometry, cells or beads pass a laser one at a time.

The subject of another data set is BRAF^V600E. The arrangement: method as in PMID 23906342. As to conditions: read-out: IC50 against BRAF^V600E; cited from earlier work.
Setting [4] is: one range for the group 4a, 4f, 4l, 4r over three cancer cell lines, read-out: IC50 values ranging, against three cancer cell lines.
The mark [5] stands for this setting: read-out: IC50 range of the compound over the cancer cell lines.
Setting [6] is: range over HePG-2, HCT-116, MCF-7, read-out: IC50 range of the compound over the cancer cell lines.

Like-named read-outs stand apart in the source and are kept apart here.

Usually IC50 stands for the point on the concentration scale where inhibition reaches its midpoint. As a reminder, the melting point is the temperature, or range, at which the solid turns liquid.

Sequence of BRAF (V600E) (P15056 whole entry V600E): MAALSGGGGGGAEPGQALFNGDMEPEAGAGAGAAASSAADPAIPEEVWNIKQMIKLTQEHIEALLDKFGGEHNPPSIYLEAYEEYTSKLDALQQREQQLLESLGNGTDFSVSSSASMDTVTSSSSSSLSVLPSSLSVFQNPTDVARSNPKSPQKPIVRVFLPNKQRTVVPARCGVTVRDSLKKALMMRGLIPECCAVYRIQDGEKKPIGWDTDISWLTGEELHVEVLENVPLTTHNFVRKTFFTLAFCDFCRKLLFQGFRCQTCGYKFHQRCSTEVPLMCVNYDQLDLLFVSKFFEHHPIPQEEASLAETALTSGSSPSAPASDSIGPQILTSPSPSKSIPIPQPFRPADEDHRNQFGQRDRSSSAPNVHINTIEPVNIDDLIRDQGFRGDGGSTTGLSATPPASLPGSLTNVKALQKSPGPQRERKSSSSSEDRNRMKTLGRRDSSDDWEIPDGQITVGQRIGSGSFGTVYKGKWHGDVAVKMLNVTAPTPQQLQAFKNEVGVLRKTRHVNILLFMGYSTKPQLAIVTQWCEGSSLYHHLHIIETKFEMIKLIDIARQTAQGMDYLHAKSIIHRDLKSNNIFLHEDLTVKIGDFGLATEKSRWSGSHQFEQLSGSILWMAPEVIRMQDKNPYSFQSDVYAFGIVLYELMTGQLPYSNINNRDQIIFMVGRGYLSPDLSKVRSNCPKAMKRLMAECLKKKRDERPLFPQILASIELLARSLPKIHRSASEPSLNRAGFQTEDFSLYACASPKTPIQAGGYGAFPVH
Sequence of VEGFR-2 (P35968 20-1356): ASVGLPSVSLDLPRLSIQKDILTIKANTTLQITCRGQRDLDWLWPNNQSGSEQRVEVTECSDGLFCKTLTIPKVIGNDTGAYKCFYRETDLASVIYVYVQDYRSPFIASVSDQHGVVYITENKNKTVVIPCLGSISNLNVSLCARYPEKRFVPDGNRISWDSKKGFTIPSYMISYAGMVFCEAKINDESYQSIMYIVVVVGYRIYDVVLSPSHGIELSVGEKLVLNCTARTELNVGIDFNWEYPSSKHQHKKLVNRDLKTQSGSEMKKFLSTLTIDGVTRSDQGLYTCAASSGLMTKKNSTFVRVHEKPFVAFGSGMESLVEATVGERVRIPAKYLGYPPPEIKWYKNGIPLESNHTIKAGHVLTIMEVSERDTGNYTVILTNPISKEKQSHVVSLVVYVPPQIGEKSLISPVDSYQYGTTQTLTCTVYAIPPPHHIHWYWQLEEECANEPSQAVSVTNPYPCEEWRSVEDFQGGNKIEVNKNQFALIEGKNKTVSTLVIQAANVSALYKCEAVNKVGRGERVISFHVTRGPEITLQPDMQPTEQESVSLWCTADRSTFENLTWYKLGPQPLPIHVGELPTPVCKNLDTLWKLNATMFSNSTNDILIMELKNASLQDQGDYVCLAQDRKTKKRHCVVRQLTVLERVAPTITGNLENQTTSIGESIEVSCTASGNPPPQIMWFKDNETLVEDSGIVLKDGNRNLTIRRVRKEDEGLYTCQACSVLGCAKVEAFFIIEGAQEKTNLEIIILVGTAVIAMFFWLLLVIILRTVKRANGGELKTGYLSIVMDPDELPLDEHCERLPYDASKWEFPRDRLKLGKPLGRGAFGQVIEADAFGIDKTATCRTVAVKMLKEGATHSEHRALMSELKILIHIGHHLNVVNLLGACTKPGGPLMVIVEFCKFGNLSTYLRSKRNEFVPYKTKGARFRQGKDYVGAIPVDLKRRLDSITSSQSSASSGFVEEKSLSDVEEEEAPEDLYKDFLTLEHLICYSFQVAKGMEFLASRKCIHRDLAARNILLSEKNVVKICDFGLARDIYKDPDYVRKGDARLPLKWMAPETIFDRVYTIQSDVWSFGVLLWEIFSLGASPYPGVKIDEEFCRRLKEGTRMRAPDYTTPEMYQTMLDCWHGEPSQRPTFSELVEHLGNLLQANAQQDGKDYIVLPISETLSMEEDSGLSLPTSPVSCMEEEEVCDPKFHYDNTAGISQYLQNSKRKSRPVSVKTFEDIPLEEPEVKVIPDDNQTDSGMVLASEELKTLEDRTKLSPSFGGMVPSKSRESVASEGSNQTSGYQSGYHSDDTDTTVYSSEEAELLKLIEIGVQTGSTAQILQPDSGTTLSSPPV

`O=C(CSc1nnc(NC(=O)Nc2ccccc2)s1)Nc1nc2ccccc2s1` [4a, N-(Benzo[d]thiazol-2-yl)-2-((5-(3-phenylureido)-1,3,4-thiadiazol-2-yl)thio)acetamide]: the melting point lay within 273 to 275 °C. Also, the IC50 on VEGFR-2 is 0.342 µM. For the same compound, in data set [1] (setting [4]), the 50% inhibitory concentration (IC50) was in the range of 3.58 to 15.4 µM. The IC50 in [1] (setting [5]) is 5.91 to 12.9 µM. The compound further yielded an IC50 on BRAF (V600E) of 0.677 µM. Further, in the data set with WI-38 cells, the 50% inhibitory concentration (IC50) stood at 66.2 ± 3.5 µM. The same compound displayed an IC50 in the data set with MCF-7 of 5.91 ± 0.3 µM. Also, in the data set on HCT-116, the IC50 was determined as 9.94 ± 0.8 µM. The compound also came in with an IC50 in the data set with HePG-2 of 12.9 ± 0.9 µM.

Regarding `Cc1ccc(NC(=O)Nc2nnc(SCC(=O)Nc3nc4ccccc4s3)s2)cc1` [4b, N-(Benzo[d]thiazol-2-yl)-2-((5-(3-(p-tolyl)ureido)-1,3,4-thiadiazol-2-yl)thio)acetamide], the IC50 in data set [1] (setting [6]) was 46.5 to 61.8 µM; in the data set with WI-38 cells, 81 ± 4.2 µM; in the data set with MCF-7 it was 46.5 ± 2.6 µM; with HCT-116, 61.8 ± 3.3 µM; in the data set with HePG-2, 48.2 ± 2.5 µM.

Regarding `COc1ccc(NC(=O)Nc2nnc(SCC(=O)Nc3nc4ccccc4s3)s2)cc1` [4c, N-(Benzo[d]thiazol-2-yl)-2-((5-(3-(4-methoxyphenyl)ureido)-1,3,4-thiadiazol-2-yl)thio)acetamide], the IC50 in data set [1] (setting [6]) was 42.2 to 65.5 µM; with WI-38 cells it was 91.3 ± 4.6 µM; in the data set with MCF-7, 54.5 ± 2.9 µM; with HCT-116 it was 65.5 ± 3.5 µM; in the data set on HePG-2, 42.2 ± 2.6 µM.

Consider `O=C(CSc1nnc(NC(=O)Nc2ccc(Cl)cc2)s1)Nc1nc2ccccc2s1` [4d, N-(Benzo[d]thiazol-2-yl)-2-((5-(3-(4-chlorophenyl)ureido)-1,3,4-thiadiazol-2-yl)thio)acetamide], for which the IC50 was 30.2 to 33.6 µM in [1] (setting [6]); 89.1 ± 4.3 µM with WI-38 cells; 33.6 ± 2 µM with MCF-7; 39.7 ± 2.3 µM in the data set on HCT-116; 30.2 ± 2.3 µM in the data set with HePG-2.

In the case of `O=C(CSc1nnc(NC(=O)Nc2ccc(F)cc2)s1)Nc1nc2ccccc2s1` [4e, N-(Benzo[d]thiazol-2-yl)-2-((5-(3-(4-fluorophenyl)ureido)-1,3,4-thiadiazol-2-yl)thio)acetamide], the IC50 was 63.4 to 82.5 µM in data set [1] (setting [6]); more than 100 µM with WI-38 cells; 67.1 ± 3.4 µM in the data set with MCF-7; 82.5 ± 4.2 µM with HCT-116; 63.4 ± 3.4 µM in the data set on HePG-2.

For `O=C(CSc1nnc(NC(=O)Nc2ccc(C(F)(F)F)c(Cl)c2)s1)Nc1nc2ccccc2s1` [4f, N-(Benzo[d]thiazol-2-yl)-2-((5-(3-(3-chloro-4-(trifluoromethyl)phenyl)ureido)-1,3,4-thiadiazol-2-yl)thio)acetamide], the IC50 on VEGFR-2 is 0.071 µM; in data set [1] (setting [4]), 3.58 to 15.4 µM; in data set [1] (setting [5]), 2.74 to 5.05 µM; at BRAF (V600E) it was 0.194 µM; in the data set with WI-38 cells, 41.2 ± 2.4 µM; in the data set on MCF-7, 2.74 ± 0.1 µM. The IC50 turned out to be 6.21 ± 0.4 µM in the data set with HCT-116 and 5.05 ± 0.3 µM with HePG-2. Further, the “proportion of apoptotic cells (early and late)” value in the data set with MCF-7 cells [2] is listed as 37.83%. Further, the “Cell Cycle Distribution (%) G2-M” value in the data set with MCF-7 cells [3] (untreated 15.85%) is given as 12.77%. In addition, the “Cell Cycle Distribution (%) S” value in the data set with MCF-7 cells [3] (untreated 26.33%) came out at 22.72%. The “Cell Cycle Distribution (%) G0-G1” value with MCF-7 cells [3] (untreated 57.82%) worked out at 64.51%.

In the case of `Cc1ccc2nc(NC(=O)CSc3nnc(NC(=O)Nc4ccccc4)s3)sc2c1` [4g, N-(6-Methylbenzo[d]thiazol-2-yl)-2-((5-(3-phenylureido)-1,3,4-thiadiazol-2-yl)thio)acetamide], the IC50 is 16.5 to 22.9 µM in data set [1] (setting [6]); 79.4 ± 4 µM in the data set on WI-38 cells; 16.5 ± 1.2 µM with MCF-7; 19.6 ± 1.3 µM in the data set on HCT-116; 22.9 ± 1.8 µM with HePG-2.

For `Cc1ccc(NC(=O)Nc2nnc(SCC(=O)Nc3nc4ccc(C)cc4s3)s2)cc1` [4h, N-(6-Methylbenzo[d]thiazol-2-yl)-2-((5-(3-(p-tolyl)ureido)-1,3,4-thiadiazol-2-yl)thio)acetamide], the IC50 in [1] (setting [6]) is 37.4 to 56.2 µM; in the data set with WI-38 cells, 87.8 ± 4.4 µM; in the data set on MCF-7 it was 40.6 ± 2.3 µM; in the data set with HCT-116, 56.2 ± 3 µM; with HePG-2, 37.4 ± 2.5 µM.

Regarding `COc1ccc(NC(=O)Nc2nnc(SCC(=O)Nc3nc4ccc(C)cc4s3)s2)cc1` [4i, 2-((5-(3-(4-Methoxyphenyl)ureido)-1,3,4-thiadiazol-2-yl)thio)-N-(6-methylbenzo[d]thiazol-2-yl)acetamide], the IC50 in data set [1] (setting [6]) was 53.1 to 76.7 µM; with WI-38 cells it was 45.5 ± 2.6 µM; in the data set with MCF-7, 59.5 ± 3.1 µM; with HCT-116 it was 76.7 ± 3.9 µM; with HePG-2 it was 53.1 ± 2.7 µM.

Turning to `Cc1ccc2nc(NC(=O)CSc3nnc(NC(=O)Nc4ccc(Cl)cc4)s3)sc2c1` [4j, 2-((5-(3-(4-Chlorophenyl)ureido)-1,3,4-thiadiazol-2-yl)thio)-N-(6-methylbenzo[d]thiazol-2-yl)acetamide], the IC50 was more than 100 µM in the data set on WI-38 cells, 84.2 ± 4.2 µM in the data set on MCF-7, more than 100 µM in the data set with HCT-116 and 78.1 ± 3.9 µM in the data set on HePG-2.

`Cc1ccc2nc(NC(=O)CSc3nnc(NC(=O)Nc4ccc(F)cc4)s3)sc2c1` [4k, 2-((5-(3-(4-Fluorophenyl)ureido)-1,3,4-thiadiazol-2-yl)thio)-N-(6-methylbenzo[d]thiazol-2-yl)acetamide]: the IC50 was 58.5 ± 3.2 µM in the data set on WI-38 cells, 69.5 ± 3.5 µM in the data set on MCF-7, 92 ± 4.6 µM with HCT-116 and 64.2 ± 3.7 µM in the data set with HePG-2.

In the case of `Cc1ccc2nc(NC(=O)CSc3nnc(NC(=O)Nc4ccc(C(F)(F)F)c(Cl)c4)s3)sc2c1` [4l, 2-((5-(3-(3-Chloro-4-(trifluoromethyl)phenyl)ureido)-1,3,4-thiadiazol-2-yl)thio)-N-(6-methylbenzo[d]thiazol-2-yl)acetamide], the IC50 in data set [1] (setting [4]) was 3.58 to 15.4 µM; in data set [1] (setting [6]) it was 9.46 to 15.4 µM; with WI-38 cells it was 47.5 ± 2.7 µM; in the data set on MCF-7, 9.46 ± 0.6 µM; in the data set with HCT-116 it was 13.5 ± 1 µM; in the data set on HePG-2 it was 15.4 ± 1.2 µM.

For `O=C(CSc1nnc(NC(=O)Nc2ccccc2)s1)Nc1nc2ccc(Cl)cc2s1` [4m, N-(6-Chlorobenzo[d]thiazol-2-yl)-2-((5-(3-phenylureido)-1,3,4-thiadiazol-2-yl)thio)acetamide], the IC50 was 28.9 to 34.4 µM in data set [1] (setting [6]); 74.5 ± 3.8 µM in the data set with WI-38 cells; 28.9 ± 1.9 µM with MCF-7; 34.4 ± 2.1 µM in the data set on HCT-116; 29.8 ± 2 µM with HePG-2.

For the compound `Cc1ccc(NC(=O)Nc2nnc(SCC(=O)Nc3nc4ccc(Cl)cc4s3)s2)cc1` [4n, N-(6-Chlorobenzo[d]thiazol-2-yl)-2-((5-(3-(p-tolyl)ureido)-1,3,4-thiadiazol-2-yl)thio)acetamide], the IC50 is more than 100 µM in the data set with WI-38 cells, 36.7 ± 2.1 µM in the data set on MCF-7, 44.8 ± 2.5 µM with HCT-116 and 32.8 ± 2.4 µM with HePG-2.

`COc1ccc(NC(=O)Nc2nnc(SCC(=O)Nc3nc4ccc(Cl)cc4s3)s2)cc1` [4o, N-(6-Chlorobenzo[d]thiazol-2-yl)-2-((5-(3-(4-methoxyphenyl)ureido)-1,3,4-thiadiazol-2-yl)thio)acetamide]: the IC50 with WI-38 cells stood at 26.4 ± 1.8 µM; in the data set on MCF-7, 43.5 ± 2.4 µM; in the data set with HCT-116, 51.6 ± 2.8 µM; in the data set with HePG-2, 35 ± 2.4 µM.

With `O=C(CSc1nnc(NC(=O)Nc2ccc(Cl)cc2)s1)Nc1nc2ccc(Cl)cc2s1` [4p, N-(6-Chlorobenzo[d]thiazol-2-yl)-2-((5-(3-(4-chlorophenyl)ureido)-1,3,4-thiadiazol-2-yl)thio)acetamide], the IC50 in the data set on WI-38 cells was 94.1 ± 4.9 µM; in the data set with MCF-7 it was 62.6 ± 3.2 µM; with HCT-116, 71.3 ± 3.7 µM; in the data set on HePG-2, 57 ± 3.1 µM.

In the case of `O=C(CSc1nnc(NC(=O)Nc2ccc(F)cc2)s1)Nc1nc2ccc(Cl)cc2s1` [4q, N-(6-Chlorobenzo[d]thiazol-2-yl)-2-((5-(3-(4-fluorophenyl)ureido)-1,3,4-thiadiazol-2-yl)thio)acetamide], the IC50 in data set [1] (setting [6]) is 21.7 to 27.4 µM; with WI-38 cells, 49.7 ± 2.9 µM; in the data set on MCF-7 it was 21.7 ± 1.5 µM; in the data set with HCT-116, 25.4 ± 1.8 µM; in the data set with HePG-2, 27.4 ± 2.2 µM.

Take `O=C(CSc1nnc(NC(=O)Nc2ccc(C(F)(F)F)c(Cl)c2)s1)Nc1nc2ccc(Cl)cc2s1` [4r, 2-((5-(3-(3-Chloro-4-(trifluoromethyl)phenyl)ureido)-1,3,4-thiadiazol-2-yl)thio)-N-(6-chlorobenzo[d]thiazol-2-yl)acetamide]: the IC50 was 0.794 µM against VEGFR-2; 3.58 to 15.4 µM in data set [1] (setting [4]); 3.85 to 8.1 µM in data set [1] (setting [5]); 1.36 µM at BRAF (V600E); 38.8 ± 2.2 µM in the data set on WI-38 cells; 3.85 ± 0.2 µM with MCF-7. Further, the IC50 with HCT-116 was 7.81 ± 0.6 µM; in the data set on HePG-2 it was 8.1 ± 0.6 µM.

Turning to `N#Cc1c(Oc2ccc(F)c(NC(=O)Cc3cccc(C(F)(F)F)c3)c2)ccc2nc(NC(=O)C3CC3)sc12` [TAK-632], in the data set with BRAF^V600E, the IC50 was 0.0024 µM.

(Values after PMC11243196, “Identification of Benzothiazoles Bearing 1,3,4-Thiadiazole as Antiproliferative Hybrids Targeting VEGFR-2 and BRAF Kinase: Design, Synthesis, BIO Evaluation and In Silico Study” (Molecules, 2024).)
